Our source for the melting point and inhibition values is patent US8273783B2, “Microbiocides” (Syngenta Crop Protection LLC, priority 2009, dated 2012).

Data set [1] has as its system Puccinia Recondita. The data set can be described thus: Preventive action against Puccinia recondita (brown rust) on wheat leaf segments. Type of data set: in vivo. The following applies: foliar, 192 h, 0.02% active ingredient, assessed 8 days after inoculation, read-out: inhibition (preventive fungicidal activity). An excerpt:
Wheat leaf segments were placed on agar in multiwell plates (24-well format) and sprayed with test solutions (0.02% active ingredient). After drying, the leaf disks were inoculated with a spore suspension of the fungus.

For data set [2], the system named is Puccinia Recondita. The data set can be described thus: Curative action against Puccinia recondita (brown rust) on wheat leaf segments. The class given is in vivo. Conditions: foliar, sprayed one day after inoculation, 0.02% active ingredient, assessed 8 days after inoculation, read-out: inhibition (curative fungicidal activity). The text has this:
Wheat leaf segments were placed on agar in multiwell plates (24-well format) and inoculated with a spore suspension of the fungus. One day after inoculation the leaf segments were sprayed with test solutions (0.02% active ingredient).

Data set [3] relates to Erysiphe Graminis f.sp. Tritici. The experiment in a line: Action against Erysiphe graminis f.sp. tritici (wheat powdery mildew), leaf segments, preventive. The class given is in vivo. The following applies: Blumeria graminis, foliar, 168 h, 0.02% active ingredient, assessed 7 days after inoculation, read-out: inhibition (preventive fungicidal activity). How it is done: Wheat leaf segments were placed on agar in multiwell plates (24-well format) and sprayed with test solutions (0.02% active ingredient). After drying, the leaf disks were inoculated with a spore suspension of the fungus. After appropriate incubation the activity of a compound was assessed 7 days after inoculation as preventive fungicidal activity.

Another data set deals with Phaeosphaeria nodorum. The experiment in a line: Preventive action against Phaeosphaeria nodorum (glume blotch) on wheat leaf segments. Conditions: Parastagonospora nodorum, foliar, 96 h, 0.02% active ingredient, assessed 4 days after inoculation, read-out: inhibition (preventive fungicidal activity). Type of data set: in vivo. How it is done:
Wheat leaf segments were placed on agar in a multiwell plate (24-well format) and sprayed with test solutions (0.02% active ingredient). After drying, the leaf disks were inoculated with a spore suspension of the fungus. After appropriate incubation the activity of a compound was assessed 4 days after inoculation as preventive fungicidal activity.

The next data set relates to Mycosphaerella arachidis. The data set can be described thus: Action against Mycosphaerella arachidis, liquid culture (early leaf spot). Type of data set: cell-based. The following applies: PDB potato dextrose broth, 0.02% active ingredient, 24° C., photometrically after 6-7 days, read-out: inhibition of growth. How it is done: Conidia of the fungus from cryogenic storage were directly mixed into nutrient broth (PDB potato dextrose broth). After placing a (DMSO) solution of the test compounds (0.02% active ingredient) into a microtiter plate (96-well format) the nutrient broth containing the fungal spores was added. The test plates were incubated at 24° C. and the inhibition of growth was measured photometrically after 6-7 days.

The next data set deals with Botryotinia fuckelianal. The data set can be described thus: Action against Botryotinia fuckeliana, liquid culture (gray mould). Type of data set: cell-based. The following applies: Botrytis cinerea; nutrient broth, 0.02% active ingredient, 24° C., photometrically after 3-4 days; read-out: inhibition of growth. How it is done:
Conidia of the fungus from cryogenic storage were directly mixed into nutrient broth. After placing a (DMSO) solution (0.02% active ingredient) of the test compounds into a microtiter plate (96-well format) the nutrient broth containing the fungal spores was added. The test plates were incubated at 24° C. and the inhibition of growth was determined photometrically after 3-4 days.

A further data set has as its system Pyrenophora teres. The data set can be described thus: Action against Pyrenophora teres (net blotch) on barley leaf segments. The class given is in vivo. Conditions: foliar, 96 h, 0.02% active ingredient, assessed 4 days after inoculation, read-out: inhibition (preventive fungicidal activity). How it is done:
Barley leaf segments were placed on agar in multiwell plates (24-well format) and sprayed with test solutions (0.02% active ingredient). After drying, the leaf disks were inoculated with a spore suspension of the fungus. After appropriate incubation the activity of a compound was assessed 4 days after inoculation as preventive fungicidal activity.

`COC(c1csc(Cl)c1Cl)C(C)N(OC)C(=O)c1cn(C)nc1C(F)F` (centres unmarked) [Compound 1.037, 3-difluoromethyl-1-methyl-1H-pyrazole-4-carboxylic acid methoxy-[2-methoxy-1-methyl-2-(4,5-dichlorothiophen-3-yl)ethyl]amide] yielded a melting point of 80 to 83 °C.

Turning to `COC(c1c(Cl)sc(Cl)c1Cl)C(C)N(OC)C(=O)c1cn(C)nc1C(F)F` (centres unmarked) [Compound 1.016, 3-difluoromethyl-1-methyl-1H-pyrazole-4-carboxylic acid methoxy-[2-methoxy-1-methyl-2-(2,4,5-trichlorothiophene-3-yl)ethyl]amide], the melting point was 113 to 116 °C. Moreover, the inhibition at 0.02 % strength with Puccinia Recondita [1] was no less than 80%. Also, the inhibition at 0.02 % strength in the data set on Puccinia Recondita [2] is no less than 80%. The inhibition at 0.02 % strength in data set [3] is no less than 80%. Moreover, in the data set with Phaeosphaeria nodorum, the inhibition at 0.02 % strength is no less than 80%. In the data set on Mycosphaerella arachidis, the inhibition at 0.02 % strength was no less than 80%. Further, the inhibition at 0.02 % strength in the data set with Botryotinia fuckelianal is no less than 80%. The inhibition at 0.02 % strength with Pyrenophora teres is no less than 80%.

`CON(C(=O)c1cn(C)nc1C(F)F)C(C)Cc1c(Cl)sc(Cl)c1Cl` (centres unmarked) [Compound 1.001, 3-difluoromethyl-1-methyl-1H-pyrazole-4-carboxylic acid methoxy-[1-methyl-2-(2,4,5-trichlorothiophene-3-yl)ethyl]amide] registered a melting point of 70 to 72 °C. Moreover, the inhibition at 0.02 % strength with Puccinia Recondita [1] was no less than 80%. Besides, the inhibition at 0.02 % strength in the data set on Puccinia Recondita [2] was no less than 80%. Further, the inhibition at 0.02 % strength in data set [3] is no less than 80%. Moreover, the inhibition at 0.02 % strength in the data set on Phaeosphaeria nodorum is no less than 80%. The inhibition at 0.02 % strength in the data set on Mycosphaerella arachidis is no less than 80%. The inhibition at 0.02 % strength with Botryotinia fuckelianal is no less than 80%. Moreover, the inhibition at 0.02 % strength in the data set with Pyrenophora teres was no less than 80%.

As for `COC(c1csc(Cl)c1Cl)C(C)N(OC)C(=O)c1cn(C)nc1C(F)F` (stereo not drawn) [1.037 (diastereoisomer pair 2), 3-difluoromethyl-1-methyl-1H-pyrazole-4-carboxylic acid methoxy-[2-methoxy-1-methyl-2-(4,5-dichlorothiophen-3-yl)ethyl]amide], the inhibition at 0.02 % strength in the data set with Puccinia Recondita [2] is no less than 80%.

Turning to `COC(c1csc(Cl)c1Cl)C(C)N(OC)C(=O)c1cn(C)nc1C(F)F` (stereo not drawn) [1.037 (diastereoisomer pair 1), 3-difluoromethyl-1-methyl-1H-pyrazole-4-carboxylic acid methoxy-[2-methoxy-1-methyl-2-(4,5-dichlorothiophen-3-yl)ethyl]amide], the inhibition at 0.02 % strength (in the data set on Puccinia Recondita [1]; in data set [3]; in the data set with Mycosphaerella arachidis; with Botryotinia fuckelianal; with Pyrenophora teres) was no less than 80% throughout.

As usually defined, the melting point is the temperature, or range, at which the solid turns liquid. A word on the inhibition: it is the share of the control response that was lost under treatment.
